pIC50: −log10 of the molar value.
Tests used:
Format in all cases: functional, cell-based
[1] = molecular target: T1, Multidrug resistance-associated protein 1 (Homo sapiens, UniProt P33527); test: TP_TRANSPORTER: inhibition of DNR transport in HL60/MRP cells
[2] = molecular target: T1, Multidrug resistance-associated protein 1; test: TP_TRANSPORTER: inhibition of DNR transport in HL60/ADR cells (overexpression of MRP1)
[3] = molecular target: T1, Multidrug resistance-associated protein 1; test: TP_TRANSPORTER: inhibition of VP-16 transport in HL60/MRP cells
[4] = molecular target: T1, Multidrug resistance-associated protein 1; test: TP_TRANSPORTER: inhibition of VP-16 transport in HL60/ADR cells (overexpression of MRP1)
[5] = molecular target: T1, Multidrug resistance-associated protein 1; test: TP_TRANSPORTER: inhibition of VCR transport in HL60/MRP cells
[6] = molecular target: T1, Multidrug resistance-associated protein 1; test: TP_TRANSPORTER: inhibition of VCR transport in HL60/ADR cells (overexpression of MRP1)

T1 sequence (P33527 whole entry): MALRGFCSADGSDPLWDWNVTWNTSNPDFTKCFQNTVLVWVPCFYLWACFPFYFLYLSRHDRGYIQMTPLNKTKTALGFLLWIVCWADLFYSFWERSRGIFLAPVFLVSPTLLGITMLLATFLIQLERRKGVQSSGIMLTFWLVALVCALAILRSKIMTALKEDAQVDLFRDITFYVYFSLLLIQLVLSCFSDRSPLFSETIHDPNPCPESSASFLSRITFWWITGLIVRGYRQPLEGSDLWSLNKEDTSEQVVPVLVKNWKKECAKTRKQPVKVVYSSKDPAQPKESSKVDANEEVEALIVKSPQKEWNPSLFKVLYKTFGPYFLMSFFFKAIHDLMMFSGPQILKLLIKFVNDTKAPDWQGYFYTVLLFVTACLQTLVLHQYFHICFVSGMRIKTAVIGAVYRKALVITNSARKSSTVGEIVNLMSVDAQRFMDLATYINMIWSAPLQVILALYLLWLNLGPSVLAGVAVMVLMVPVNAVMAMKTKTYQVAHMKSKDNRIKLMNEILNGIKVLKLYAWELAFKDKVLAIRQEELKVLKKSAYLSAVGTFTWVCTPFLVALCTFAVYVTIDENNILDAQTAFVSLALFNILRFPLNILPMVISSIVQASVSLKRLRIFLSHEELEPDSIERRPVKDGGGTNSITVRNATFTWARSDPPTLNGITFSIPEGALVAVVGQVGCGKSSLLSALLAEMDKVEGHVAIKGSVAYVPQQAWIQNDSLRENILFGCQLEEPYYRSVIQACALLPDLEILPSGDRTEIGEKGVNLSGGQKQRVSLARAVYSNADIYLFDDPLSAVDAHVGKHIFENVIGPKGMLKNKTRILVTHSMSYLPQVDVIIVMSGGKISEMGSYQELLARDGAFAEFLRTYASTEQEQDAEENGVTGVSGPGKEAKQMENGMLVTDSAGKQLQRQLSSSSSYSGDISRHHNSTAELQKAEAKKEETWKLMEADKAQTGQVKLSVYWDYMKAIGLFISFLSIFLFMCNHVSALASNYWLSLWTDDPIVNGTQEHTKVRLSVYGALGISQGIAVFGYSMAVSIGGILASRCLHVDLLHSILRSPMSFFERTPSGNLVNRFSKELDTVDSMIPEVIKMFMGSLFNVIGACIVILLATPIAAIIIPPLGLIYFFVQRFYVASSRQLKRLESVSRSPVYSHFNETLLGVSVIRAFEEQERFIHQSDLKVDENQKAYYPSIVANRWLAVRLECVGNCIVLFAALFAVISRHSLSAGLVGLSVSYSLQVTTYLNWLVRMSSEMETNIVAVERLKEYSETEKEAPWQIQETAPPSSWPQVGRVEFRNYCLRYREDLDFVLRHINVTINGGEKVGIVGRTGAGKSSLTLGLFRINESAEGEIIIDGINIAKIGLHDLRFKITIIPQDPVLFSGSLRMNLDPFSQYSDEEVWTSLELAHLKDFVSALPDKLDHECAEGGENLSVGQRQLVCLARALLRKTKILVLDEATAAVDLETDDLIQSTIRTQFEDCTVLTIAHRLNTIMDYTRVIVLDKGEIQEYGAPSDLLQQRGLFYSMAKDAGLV

Row | pIC50 [1] | pIC50 [2] | pIC50 [3] | pIC50 [4] | pIC50 [5] | pIC50 [6] | Structure (SMILES)
1 | 6.74 | 6.91 | 5.56 | 5.11 | 8.03 | 9.02 | COc1cc2c(c(OC)c1OC)-c1c(cc3c(c1OC)OCO3)C[C@H](C)[C@@](C)(O)C2 [GOMISIN A]
2 | 6.69 | 6.85 | 5.65 | 5.38 | 8.02 | 8.90 | COc1cc2c(c(OC)c1OC)-c1c(cc3c(c1OC)OCO3)CC(C)C(C)C2 (centres undefined) [SCHISANDRIN B]
3 | 6.66 | 6.90 | 5.49 | 5.14 | 8.09 | 8.94 | COc1cc2c(c(OC)c1OC)-c1c(cc(OC)c(OC)c1OC)C[C@](C)(O)[C@@H](C)C2 [SCHIZANDRIN]
4 | 6.81 | 6.85 | 5.63 | 5.31 | 8.16 | 8.01 | COc1cc2c(c(OC)c1OC)-c1c(cc(OC)c(OC)c1OC)C[C@H](C)[C@H](C)C2 [SCHISANDRIN A]

Reference: ChEMBL document CHEMBL2073771, “Dibenzocyclooctadiene lignans: a class of novel inhibitors of multidrug resistance-associated protein 1” (Life Sci, 2006)
